Experimental data taken from article PMC9685933, “Tiliroside suppresses triple-negative breast cancer as a multifunctional CAXII inhibitor” (Cancer Cell International, 2022).

Biological target: T1, CAXII (Homo sapiens, UniProt O43570)
T1 construct: gene CA12
Assay: CAXII esterase activity assay (4-nitrophenol absorbance) in MDA-MB-231 cells; […] in BT-549 cells
Type: cell-based

T1 sequence (O43570 25-354): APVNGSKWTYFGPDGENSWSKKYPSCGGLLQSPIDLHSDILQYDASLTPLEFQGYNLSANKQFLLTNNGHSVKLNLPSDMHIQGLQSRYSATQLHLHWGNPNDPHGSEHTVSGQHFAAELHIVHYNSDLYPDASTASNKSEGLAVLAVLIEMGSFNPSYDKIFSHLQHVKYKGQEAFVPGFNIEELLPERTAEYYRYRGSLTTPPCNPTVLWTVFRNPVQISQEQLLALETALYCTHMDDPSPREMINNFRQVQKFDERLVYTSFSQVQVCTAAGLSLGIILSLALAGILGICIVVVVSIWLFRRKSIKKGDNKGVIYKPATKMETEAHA

IC50: 20.9 ± 5.8 µM
SMILES: O=C(/C=C/c1ccc(O)cc1)OC[C@H]1O[C@@H](Oc2c(-c3ccc(O)cc3)oc3cc(O)cc(O)c3c2=O)[C@H](O)[C@@H](O)[C@@H]1O [TS, Tiliroside]
